The structures appear in SMILES notation.

Common to all, as to format: cell-based
The target in one test is Nav1.7 (Homo sapiens, UniProt Q15858). Description: EFS-FRET assay. Further details: expressed in transfected cells; host or cells: CHO (Chinese hamster ovary) cells. Particulars: CHO cells expressing human Nav1.7 channels, read-out: IC50 against Nav1.7. The procedure:
This screen is used to determine the effects of compounds on human Nav1.7 channels, utilizing electrical field stimulation (EFS) system in 96-well plate format on FDSS (Hamamatsu Photonics) platform. The changes of membrane potential are monitored with FRET dye pair, DiSBAC2(3) and PTS18.
CHO (Chinese hamster ovary) cells expressing human Nav1.7 channels are grown in T225 flasks, in a 5% CO2 humidified incubator to about 80% confluence. Media composition consists of HAM/F12 with Glutamax I, 10% FCS, 100 units/mF penicillin and 100 microgram/mF hygromycin.
• Seed each cell lines (1×10^5 cells/well) into 96-well plates prior to experimentation. • Incubate at 37° C. in 5% CO2 for 24 hours. • Wash each well with assay buffer (140 mM NaCl, 4.5 mM KCl, 10 mM D-Glucose, 2 mM CaCl2, 1 mM MgCl2, 10 mM HEPES, pH 7.4 adjusted with NaOH) twice. • Add 1st loading solution containing 10 microM PTS18 and 0.06% Pluronic F-127 in assay buffer. • Incubate the plate at rt in dark for 1 hour. • Remove 1st loading solution and add 2nd loading solution containing 12.5 microM DiSBAC2(3), 1.25 mM Xylene Fast Yellow and 0.0075% Pluronic F-127 in assay buffer. • Place the plate under the dark at rt for 25 minutes. • Add compound solutions into the assay plate. • Set the assay plate in FDSS and place an EFS device on the plate. • Measure EFS-induced fluorescent response by FDSS.
The data are analyzed and reported as normalized ratios of intensities measured at […]. The process of calculating these ratios is performed as follows:
This analysis is performed using a computerized specific program designed for FDSS generated data. Fluorescence ratio values are plotted using XLfit to determine an IC50 value for each compound.

A further test concerns the target T1, human Nav1.8 channels (Homo sapiens, UniProt Q9Y5Y9).
T1 construct: expressed in transfected cells; host or cells: HEK293 cells
Description: FRET assay (FDSS membrane potential). As to conditions: HEK293 cells expressing human Nav1.8 channels, read-out: IC50 against Nav1.8. As for the experimental part: (§1) This screen is used to determine the effects of compounds on human Nav1.8, and human Nav1.5 channels, utilizing the cell imaging technology by Hamamatsu Photonics's Functional Drug Screening System (FDSS). The changes of membrane potential are monitored with fluorescent membrane potential dye pair, DiSBAC2(3) and CC2-DMPE, using FRET technology.
(§2) HEK293 cells expressing human Nav1.8 channels or human Nav1.5 channels are grown in T225 flasks, in a 5% CO2 humidified incubator to about 80% confluence. […]
(§3) The data is analyzed and reported as normalized ratios of intensities measured in the 465 nm and 575 nm channels. The process of calculating these ratios is performed as follows: FR=(FI465 Max/FI575 Min)−(FI465B/FI575B) [Math.2] • “FR”=fluorescence ratio • “FI465B”=the mean of fluorescence intensity as baseline (before Na^+ ligand addition) at 465 nm • “FI575B”=the mean of fluorescence intensity as baseline (before Na^+ ligand addition) at 575 nm • “FI465Max”=maximum fluorescence intensity at 465 nm after Na^+ stimulation • “FI575Min”=minimum fluorescence intensity at 575 nm after Na^+ stimulation Inhibition (%)=100−(FR of each well)−(median FR in positive controls)/(median FR in negative controls)−(median FR in positive controls)×100 [Math.3] […]

The next test deals with T2, human Nav1.5 channels (Homo sapiens, UniProt Q14524).
T2 construct: expressed in transfected cells; host or cells: HEK293 cells
Description: FRET assay (FDSS membrane potential). Particulars: HEK293 cells expressing human Nav1.5 channels, read-out: activity (IC50) against Nav1.5. As for the experimental part: as §1, §2, §3

T1 sequence (Q9Y5Y9 whole entry): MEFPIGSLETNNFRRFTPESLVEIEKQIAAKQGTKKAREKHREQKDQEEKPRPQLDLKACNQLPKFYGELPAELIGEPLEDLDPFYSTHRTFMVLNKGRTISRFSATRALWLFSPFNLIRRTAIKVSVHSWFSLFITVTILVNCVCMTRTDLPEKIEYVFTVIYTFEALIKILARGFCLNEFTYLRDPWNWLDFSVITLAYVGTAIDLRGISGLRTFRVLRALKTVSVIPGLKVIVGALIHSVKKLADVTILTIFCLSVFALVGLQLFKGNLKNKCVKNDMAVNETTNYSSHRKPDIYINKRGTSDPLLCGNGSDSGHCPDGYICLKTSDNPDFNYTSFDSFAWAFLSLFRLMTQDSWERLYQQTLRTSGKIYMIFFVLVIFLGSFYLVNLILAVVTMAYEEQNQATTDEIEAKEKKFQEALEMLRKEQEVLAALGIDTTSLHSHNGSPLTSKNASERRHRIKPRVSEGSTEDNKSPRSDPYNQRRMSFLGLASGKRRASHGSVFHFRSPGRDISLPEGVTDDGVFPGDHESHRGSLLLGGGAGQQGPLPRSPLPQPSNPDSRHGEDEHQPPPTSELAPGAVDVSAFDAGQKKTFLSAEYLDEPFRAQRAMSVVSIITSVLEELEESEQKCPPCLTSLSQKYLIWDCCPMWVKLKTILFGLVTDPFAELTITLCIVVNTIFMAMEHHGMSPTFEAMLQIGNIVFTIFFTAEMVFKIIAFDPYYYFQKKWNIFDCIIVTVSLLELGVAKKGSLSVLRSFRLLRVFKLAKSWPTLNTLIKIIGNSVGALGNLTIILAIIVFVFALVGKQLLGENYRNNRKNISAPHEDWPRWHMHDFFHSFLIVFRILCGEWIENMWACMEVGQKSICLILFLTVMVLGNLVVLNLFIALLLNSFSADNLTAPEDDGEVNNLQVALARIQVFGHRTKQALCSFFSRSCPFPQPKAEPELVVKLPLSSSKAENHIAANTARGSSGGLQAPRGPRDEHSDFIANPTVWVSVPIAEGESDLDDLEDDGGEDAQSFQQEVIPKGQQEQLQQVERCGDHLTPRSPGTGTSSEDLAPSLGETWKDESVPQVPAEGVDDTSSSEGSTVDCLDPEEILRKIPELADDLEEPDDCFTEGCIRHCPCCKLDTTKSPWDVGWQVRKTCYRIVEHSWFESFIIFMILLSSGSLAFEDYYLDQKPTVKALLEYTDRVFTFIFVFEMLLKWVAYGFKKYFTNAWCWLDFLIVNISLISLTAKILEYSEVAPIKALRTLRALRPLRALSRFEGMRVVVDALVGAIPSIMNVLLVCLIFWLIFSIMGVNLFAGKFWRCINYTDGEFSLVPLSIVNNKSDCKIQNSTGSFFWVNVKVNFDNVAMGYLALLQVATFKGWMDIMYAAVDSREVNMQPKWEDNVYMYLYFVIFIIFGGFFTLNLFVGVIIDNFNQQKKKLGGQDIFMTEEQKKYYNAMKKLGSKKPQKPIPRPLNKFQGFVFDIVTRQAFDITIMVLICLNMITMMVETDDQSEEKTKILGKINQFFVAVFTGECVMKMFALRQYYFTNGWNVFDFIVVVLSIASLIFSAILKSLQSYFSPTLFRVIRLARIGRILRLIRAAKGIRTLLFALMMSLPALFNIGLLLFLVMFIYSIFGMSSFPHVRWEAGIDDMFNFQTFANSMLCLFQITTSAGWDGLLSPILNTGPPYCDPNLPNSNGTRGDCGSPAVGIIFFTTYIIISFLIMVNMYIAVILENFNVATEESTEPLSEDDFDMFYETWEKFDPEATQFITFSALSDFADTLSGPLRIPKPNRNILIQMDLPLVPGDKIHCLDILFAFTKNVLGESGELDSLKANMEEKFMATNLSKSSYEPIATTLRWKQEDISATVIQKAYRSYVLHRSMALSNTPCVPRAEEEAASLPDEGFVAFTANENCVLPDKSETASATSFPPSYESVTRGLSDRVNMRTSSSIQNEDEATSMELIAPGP
Sequence of Nav1.7 (Q15858 whole entry): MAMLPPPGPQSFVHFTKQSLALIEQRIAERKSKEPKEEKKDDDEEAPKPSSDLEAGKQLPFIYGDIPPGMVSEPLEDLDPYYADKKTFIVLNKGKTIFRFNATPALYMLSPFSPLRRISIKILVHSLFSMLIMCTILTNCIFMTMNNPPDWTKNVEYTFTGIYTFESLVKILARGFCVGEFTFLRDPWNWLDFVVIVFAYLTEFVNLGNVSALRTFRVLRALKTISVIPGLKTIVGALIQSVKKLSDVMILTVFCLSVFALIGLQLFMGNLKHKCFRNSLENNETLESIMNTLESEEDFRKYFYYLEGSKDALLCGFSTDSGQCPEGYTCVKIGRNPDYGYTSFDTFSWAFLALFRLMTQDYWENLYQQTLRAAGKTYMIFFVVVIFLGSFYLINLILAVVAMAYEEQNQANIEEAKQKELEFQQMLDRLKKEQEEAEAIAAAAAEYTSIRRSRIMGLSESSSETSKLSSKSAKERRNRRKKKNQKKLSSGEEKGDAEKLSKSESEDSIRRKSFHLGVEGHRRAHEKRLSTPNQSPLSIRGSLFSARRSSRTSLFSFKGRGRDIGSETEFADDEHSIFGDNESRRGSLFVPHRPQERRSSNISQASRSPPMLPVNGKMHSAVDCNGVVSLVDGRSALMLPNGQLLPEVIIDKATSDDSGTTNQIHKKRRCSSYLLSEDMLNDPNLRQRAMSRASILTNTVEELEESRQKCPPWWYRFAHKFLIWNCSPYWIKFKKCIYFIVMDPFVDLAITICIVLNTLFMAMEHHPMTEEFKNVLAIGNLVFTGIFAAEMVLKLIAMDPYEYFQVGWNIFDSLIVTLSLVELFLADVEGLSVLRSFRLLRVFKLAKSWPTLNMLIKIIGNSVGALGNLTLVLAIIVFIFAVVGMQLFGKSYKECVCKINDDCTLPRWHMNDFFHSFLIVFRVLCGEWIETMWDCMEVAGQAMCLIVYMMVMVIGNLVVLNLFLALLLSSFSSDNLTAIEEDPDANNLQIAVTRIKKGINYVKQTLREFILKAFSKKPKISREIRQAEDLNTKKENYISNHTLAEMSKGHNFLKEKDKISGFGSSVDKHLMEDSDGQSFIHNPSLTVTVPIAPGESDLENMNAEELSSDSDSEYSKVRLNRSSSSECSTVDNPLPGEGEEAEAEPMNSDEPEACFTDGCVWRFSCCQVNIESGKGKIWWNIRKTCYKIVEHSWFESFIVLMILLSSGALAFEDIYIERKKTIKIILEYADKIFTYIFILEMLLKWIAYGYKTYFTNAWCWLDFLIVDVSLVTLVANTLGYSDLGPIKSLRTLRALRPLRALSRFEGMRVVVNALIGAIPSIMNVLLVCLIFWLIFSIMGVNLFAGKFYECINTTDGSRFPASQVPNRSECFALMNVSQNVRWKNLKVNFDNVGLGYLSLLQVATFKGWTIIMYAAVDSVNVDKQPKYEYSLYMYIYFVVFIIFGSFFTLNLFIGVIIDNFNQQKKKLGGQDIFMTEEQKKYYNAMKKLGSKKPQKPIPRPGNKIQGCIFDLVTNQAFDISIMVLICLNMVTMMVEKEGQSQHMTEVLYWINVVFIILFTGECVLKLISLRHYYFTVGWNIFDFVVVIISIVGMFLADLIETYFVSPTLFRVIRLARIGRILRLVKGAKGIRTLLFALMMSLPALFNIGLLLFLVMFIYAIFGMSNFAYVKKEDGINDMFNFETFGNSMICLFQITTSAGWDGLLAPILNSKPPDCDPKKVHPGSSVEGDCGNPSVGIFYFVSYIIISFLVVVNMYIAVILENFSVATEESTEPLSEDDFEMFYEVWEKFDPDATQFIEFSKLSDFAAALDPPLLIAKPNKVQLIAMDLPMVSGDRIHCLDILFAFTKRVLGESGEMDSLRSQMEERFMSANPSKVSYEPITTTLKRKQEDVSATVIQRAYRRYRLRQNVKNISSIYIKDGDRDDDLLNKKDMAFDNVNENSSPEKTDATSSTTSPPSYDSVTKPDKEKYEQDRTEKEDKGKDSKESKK

The IC50 is the concentration that gives 50% inhibition. On to `O=C(N[C@@H]1CCCN(c2ncc(C(F)(F)F)cc2Cl)C1)c1ccnc(NC(=O)C2CC2)c1` [Example 7], for which the IC50 on Nav1.7 was less than 500 nM; on human Nav1.8 channels it was 2000 nM; on human Nav1.5 channels, greater than 30000 nM.

These data come from patent publication US12110287B2, “Heterocyclic derivatives as Nav1.7 and Nav1.8 blockers” (RaQualia Pharma Inc., priority 2018, dated 2024).
